Data published in patent publication US20060183901A1, “Crystalline form of an indazole-carboxamide compound” (THERAVANCE, INC., priority 2005, published 2006).

Tests used:
[1] = Pharmacokinetic study in the rat; conditions: in vivo
Procedure: Assay 6: Pharmacokinetic Study in the Rat
Aqueous solution formulations of test compounds were prepared in 0.1% lactic acid at a pH of between about 5 and about 6. Male Sprague-Dawley rats (CD strain, Charles River Laboratories, Wilmington, Mass.) were dosed with test compounds via intravenous administration (IV) at a dose of 2.5 mg/kg or by oral gavage (PO) at a dose of 5 mg/kg. The dosing volume was 1 mL/kg for IV and 2 mL/kg for PO administration. Serial blood samples were collected from animals pre-dose, and at 2 (IV only), 5, 15, and 30 min, and at 1, 2, 4, 8, and 24 hours post-dose. Concentrations of test compounds in blood plasma were determined by liquid chromatography-mass spectrometry analysis (LC-MS/MS) (MDS SCIEX, API 4000, Applied Biosystems, Foster City, Calif.) with a lower limit of quantitation of 1 ng/mL.
Standard pharmacokinetic parameters were assessed by non-compartmental analysis (Model 201 for IV and Model 200 for PO) using WinNonlin (Version 4.0.1, Pharsight, Mountain View, Calif.). The maximum in the curve of test compound concentration in blood plasma vs. time is denoted Cmax. The area under the concentration vs. time curve from the time of dosing to the last measurable concentration (AUC(0-t)) was calculated by the linear trapezoidal rule. Oral bioavailability (F(%)), i.e. the dose-normalized ratio of AUC(0-t) for PO administration to AUC(0-t) for IV administration, was calculated as: F(%)=AUCPO/AUCIV×DoseIV/DosePO×100%

Caco-2 cell monolayer = test: Caco-2 permeation assay; format: in vitro ADME, human; conditions: 100 μM, 37° C., 60 min
Procedure: Assay 5: In Vitro Model of Oral Bioavailability: Caco-2 Permeation Assay
The Caco-2 permeation assay was performed to model the ability of test compounds to pass through the intestine and get into the blood stream after oral administration. The rate at which test compounds in solution permeate a cell monolayer designed to mimic the tight junction of human small intestinal monolayers was determined.
Caco-2 (colon, adenocarcinoma; human) cells were obtained from ATCC (American Type Culture Collection; Rockville, Md.). For the permeation study, cells were seeded at a density of 63,000 cells/cm^2 on pre-wetted transwells polycarbonate filters (Costar; Cambridge, Mass.). A cell monolayer was formed after 21 days in culture. Following cell culture in the transwell plate, the membrane containing the cell monolayer was detached from the transwell plate and inserted into the diffusion chamber (Costar; Cambridge, Mass.). The diffusion chamber was inserted into the heating block which was equipped with circulating external, thermostatically regulated 37° C. water for temperature control. […]
The permeation study was performed with test compound concentrations at 100 μM and with ^14C-mannitol to monitor the integrity of the monolayer. […] Samples were analyzed by HPLC or liquid scintillation counting for test compound and mannitol concentrations. The permeation coefficient (Kp) in cm/sec was calculated.

human 5-HT4(c) receptor [2] = biological target: T1, human 5-HT4(c) receptor (Homo sapiens, UniProt Q13639); test: Whole-cell cAMP accumulation flashplate assay with HEK-293 cells expressing human 5-HT4(c) receptors; format: cell-based; design: expressed in transfected cells; host or cells: HEK-293
T1 sequence (Q13639 1-380 isoform Q13639-4): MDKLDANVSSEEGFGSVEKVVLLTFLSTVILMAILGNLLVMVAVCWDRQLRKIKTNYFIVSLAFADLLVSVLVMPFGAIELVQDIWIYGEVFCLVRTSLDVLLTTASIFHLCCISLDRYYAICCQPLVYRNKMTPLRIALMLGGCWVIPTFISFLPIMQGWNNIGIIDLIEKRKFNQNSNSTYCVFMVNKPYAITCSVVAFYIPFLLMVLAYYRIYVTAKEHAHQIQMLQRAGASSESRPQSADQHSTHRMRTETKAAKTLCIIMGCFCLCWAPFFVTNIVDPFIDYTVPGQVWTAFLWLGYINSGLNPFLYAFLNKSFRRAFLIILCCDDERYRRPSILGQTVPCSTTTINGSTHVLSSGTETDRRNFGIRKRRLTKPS
Procedure: The plates were sealed and incubated at 4° C. overnight.
Potency data are reported as pEC50 values, the negative decadic logarithm of the EC50 value, where EC50 is the effective concentration for a 50% maximal response.

human 5-HT3A receptor = human 5-HT3A receptor (Homo sapiens, UniProt P46098)
Chain of human 5-HT3A receptor (P46098 24-478): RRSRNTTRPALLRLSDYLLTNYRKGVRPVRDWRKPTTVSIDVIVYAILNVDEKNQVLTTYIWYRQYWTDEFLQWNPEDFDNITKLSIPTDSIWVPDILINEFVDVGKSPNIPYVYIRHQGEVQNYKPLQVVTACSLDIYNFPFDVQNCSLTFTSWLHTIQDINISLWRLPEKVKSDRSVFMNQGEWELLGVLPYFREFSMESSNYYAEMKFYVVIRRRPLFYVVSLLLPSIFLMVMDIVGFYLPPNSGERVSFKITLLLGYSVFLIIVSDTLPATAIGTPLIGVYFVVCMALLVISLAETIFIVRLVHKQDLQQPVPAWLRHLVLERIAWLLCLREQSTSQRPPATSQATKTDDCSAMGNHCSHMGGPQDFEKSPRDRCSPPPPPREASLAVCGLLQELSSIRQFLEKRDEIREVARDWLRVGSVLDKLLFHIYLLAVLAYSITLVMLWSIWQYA
Procedure: Assay 2: Radioligand Binding Assay on 5-HT3A Human Receptors: Determination of Receptor Subtype Selectivity
Membrane Preparation 5-HT3A
Cells were grown in T-225 flasks or cell factories in 50% Dulbecco's Modified Eagles Medium (DMEM) (GIBCO-Invitrogen Corp., Carlsbad, Calif.: Cat #11965) and 50% Ham's F12 (GIBCO-Invitrogen Corp.: Cat #11765) supplemented with 10% heat inactivated fetal bovine serum (FBS) (Hyclone, Logan, Utah: Cat #SH30070.03) and (50 units) penicillin-(50 μg) streptomycin/ml (GIBCO-Invitrogen Corp.: Cat #15140) in a 5% CO2, humidified incubator at 37° C.
Cells were grown to roughly 70-80% confluency (<35 subculture passages). All steps of the membrane preparation were performed on ice. […]
Radioligand binding assays were performed in 96-well polypropylene assay plates in a total assay volume of 200 μL containing 1.5-2 μg membrane protein in 50 mM HEPES pH 7.4, containing 0.025% BSA assay buffer. […] Non-specific binding was determined in the presence of 10 μM unlabeled MDL72222. […] Filter plates were washed three times with filtration buffer (ice-cold 50 mM HEPES, pH7.4) to remove unbound radioactivity. Plates were dried, 35 μL Microscint-20 liquid scintillation fluid (Packard BioScience Co., Meriden, Conn.) was added to each well and plates were counted in a Packard Topcount liquid scintillation counter (Packard BioScience Co., Meriden, Conn.). […]

human 5-HT4(c) receptor [3] = biological target: T1, human 5-HT4(c) receptor; test: Radioligand binding assay on 5-HT4(c) human receptors; design: expressed in transfected cells
Procedure: Assay 1: Radioligand Binding Assay on 5-HT4(c) Human Receptors a. Membrane Preparation 5-HT4(c)
Cells were grown under continuous selection pressure by the addition of 800 μg/mL geneticin (GIBCO-Invitrogen Corp.: Cat #10131) to the medium.
Cells were grown to roughly 60-80% confluency (<35 subculture passages). At 20-22 hours prior to harvesting, cells were washed twice and fed with serum-free DMEM. […] The cell monolayer was lifted by gentle mechanical agitation and trituration with a 25 mL pipette.
For the membrane preparation, cell pellets were resuspended in ice-cold 50 mM 4-(2-hydroxyethyl)-1-piperazineethanesulphonic acid (HEPES), pH 7.4 (membrane preparation buffer) (40 mL/total cell yield from 30-40 T225 flasks) and homogenized using a polytron disrupter (setting 19, 2×10 s) on ice. The resultant homogenates were centrifuged at 1200 g for 5 min at 4° C. […] Protein concentration of the membrane suspension was determined by the method of Bradford (Bradford, 1976). […]
Non-specific binding was determined in the presence of 1 μM unlabeled GR113808.
Binding data were analyzed by nonlinear regression analysis with the GraphPad Prism Software package (GraphPad Software, Inc., San Diego, Calif.) using the 3-parameter model for one-site competition. […] Results are expressed as the negative decadic logarithm of the Ki values, pKi.

[4] = male Sprague-Dawley rats, PO 5 mg/kg, blood plasma

CC(=O)N1CCN(CCN2C3CCC2CC(NC(=O)c2nn(C(C)C)c4ccccc24)C3)CC1 [compound of formula I, 1-isopropyl-1H-indazole-3-carboxylic acid {(1S,3R,5R)-8-[2-(4-acetylpiperazin-1-yl)ethyl]-8-azabicyclo[3.2.1]oct-3-yl}amide]
AUC(0-t) [1, 4]: 730 ng·h/mL
Cmax [1, 4]: 250 ng/mL
bioavailability ([1]; male, Sprague-Dawley, PO 5 mg/kg vs IV 2.5 mg/kg, read-out: oral bioavailability (F(%))): ~100%
permeation coefficient Kp (Caco-2 cell monolayer): greater than 20×10^−6 cm/sec
EC50 (human 5-HT4(c) receptor [2]): < 31.6 nM
5-HT4/5-HT3 receptor subtype selectivity, ratio Ki(5-HT3A)/Ki(5-HT4(c)) (human 5-HT3A receptor): greater than 500
Ki (human 5-HT4(c) receptor [3]): < 100 nM
